The values below come from patent publication US11613533B2, “Compounds useful for inhibiting RET kinase” (Eli Lilly and Company, priority 2020, dated 2023).

The target in experiment [1] is T1, KIF5B-RET mutant form V804M in HEK293 cells (Homo sapiens, UniProt P07949, V804M).
T1 construct: expressed in transfected cells; host or cells: HEK293; the other entry of the earlier key: KIF5B (P33176, Kinesin-1 heavy chain)
T1 sequence (P07949 713-1063 V804M limits assumed): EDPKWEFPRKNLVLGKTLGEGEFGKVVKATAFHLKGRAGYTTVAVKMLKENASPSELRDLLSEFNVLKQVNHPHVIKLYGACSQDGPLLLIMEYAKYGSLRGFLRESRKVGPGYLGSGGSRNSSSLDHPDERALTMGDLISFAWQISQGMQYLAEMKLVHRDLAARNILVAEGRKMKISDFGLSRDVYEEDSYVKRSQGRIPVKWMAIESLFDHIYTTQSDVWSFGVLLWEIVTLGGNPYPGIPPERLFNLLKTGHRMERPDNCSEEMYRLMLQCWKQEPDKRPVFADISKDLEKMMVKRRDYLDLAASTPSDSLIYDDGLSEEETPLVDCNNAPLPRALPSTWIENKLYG
The experiment is described as follows: RET cell assay (In-Cell Western, phospho-RET Y1062), V804M. Particulars: HEK293, doxycycline-induced KIF5B-RET V804M, 1 hr compound treatment; read-out: EC50, inhibition of intracellular autophosphorylation of RET at tyrosine 1062, V804M cells. Type of experiment: cell-based. Here is the method: (§1) Compounds of formulas (I), (II), and (III) are screened for their ability to inhibit the intracellular autophosphorylation of RET at tyrosine 1062 as detected by In-Cell Western. HEK293 cells containing a doxycycline-inducible plasmid for inducible expression of KIF5B-RET WT and RET mutant forms V804M and G810S are seeded at 25,000 cells/well into black poly-D-lysine pre-coated 384-well plates (Corning, Catalog No. 356697). Expression of KIF5B-RET is induced with doxycycline at 1 μg/mL and cells are incubated at 37° C. overnight. Compounds are prepared in a threefold serial dilution in DMSO before further diluting 1:100 in media prior to the addition to the cells (0.1% final DMSO concentration). Compound treatment is performed for 1 hr at 37° C. followed by fixation of cells with 4% formaldehyde for 20 min at RT and cell permeabilisation with ice-cold MeOH for 10 min at RT. Cells are incubated with Intercept® blocking buffer (Li—COR, Catalogue No. 927-70010) for 1 hr at RT. Incubation with primary antibodies against human phospho-RET (Y1062) (R&D, Catalogue No. AF5009, 1/250 dilution) and human glyceraldehyde-3-phosphate dehydrogenase (clone 6C5, Merck, Catalog No. MAB374, 1/1000 dilution) are performed overnight at 4° C. Incubation with secondary antibodies IRDye® 800CW goat anti-rabbit IgG (Li—COR, Catalogue No. 926-32211, 1/1000 dilution) and IRDye® 680CW goat anti-mouse IgG (Li—COR, Catalogue No. 926-68070, 1/1000 dilution) are performed for 1 hr at RT. All antibody dilutions are done in Intercept® blocking buffer containing 0.05% Tween20. After washing cells with PBS-T (Cell Signaling technology, Catalogue No. 9809), the images are acquired on a Li—COR Odyssey LCx at 700 and 800 nm. Percent of DMSO control is calculated with 100% signal referring to control conditions containing no compound (0.4% DMSO only) and 0% signal represented by conditions containing control compound. The % of DMSO control values are fit to a 4 parameter logistic curve, and the determined EC50 value is defined as the estimated concentration of inhibitor at the inflexion point of the fitted curve.

The target of experiment [2] is T2, KIF5B-RET mutant form G810S in HEK293 cells (Homo sapiens, UniProt P07949, G810S).
T2 construct: expressed in transfected cells; host or cells: HEK293; the other entry of the earlier key: KIF5B (P33176, Kinesin-1 heavy chain)
T2 sequence (P07949 713-1063 G810S limits assumed): T1 sequence (P07949 713-1063 V804M limits assumed) with M92V, G98S
In words: RET cell assay (In-Cell Western, phospho-RET Y1062), G810S. It is filed as cell-based. Particulars: HEK293, doxycycline-induced KIF5B-RET G810S, 1 hr compound treatment; read-out: EC50, inhibition of intracellular autophosphorylation of RET at tyrosine 1062, G810S cells. On the procedure:
as §1

Substitutions are numbered along the chain they refer to.

With `CC(C(=O)Nc1cc(C(C)(C)CC(F)(F)F)on1)c1ccc(-c2nn(C(C)C)c(N)c2C(N)=O)nc1` (single isomer, unassigned; isomer 2) [Example 68, 5-Amino-1-isopropyl-3-(5-(1-oxo-1-((5-(4,4,4-trifluoro-2-methylbutan-2-yl)isoxazol-3-yl)amino)propan-2-yl)pyridin-2-yl)-1H-pyrazole-4-carboxamide, Isomer 2], the EC50 in experiment [1] and in experiment [2] was under 100 nM throughout.
Regarding `CC(C(=O)Nc1cc(C(C)(C)C(F)(F)F)on1)c1ccc(-c2nn(C(C)C)c(N)c2C(N)=O)nc1` (single isomer, unassigned; isomer 2) [Example 64, 5-Amino-1-isopropyl-3-[5-(1-[[5-(1,1,1-trifluoro-yl)-1,2-oxazol-3-2-methylpropan-2-yl]carbamoyl]ethyl)pyridin-2-yl]pyrazole-4-carboxamide, Isomer 2], the EC50 in experiment [1] and in experiment [2] was under 100 nM throughout.
